Experiments:
Ae. aegypti [1] = experiment: Minimum Effective Dosage (MED) test on treated cloth, mosquito repellency; format: in vivo, Aedes aegypti; details: for mosquito repellent activity against Ae. aegypti (in words): MED test on treated cloth; for Ae. aegypti Minimum Effective Dosage, F1 / Ae. aegypti Minimum Effective Dosage, M1 / Ae. aegypti Minimum Effective Dosage, M2 / Ae. aegypti Minimum Effective Dosage, Average: Table 2; for Ae. aegypti Minimum Effective Dosage, F1: human subject F1; for Ae. aegypti Minimum Effective Dosage, M1: human subject M1; for Ae. aegypti Minimum Effective Dosage, M2: human subject M2; for Ae. aegypti Minimum Effective Dosage, Average: mean of 3 volunteers
Experimental: Bioassay for mosquito repellent activity: Repellency screening test for experimental chemicals were carried out to identify candidates that might be useful repellents. The repellent efficacy was compared to that of the standard repellent, DEET. Experimental compounds were assessed in one of two ways: (1) a range of concentration was evaluated to determine the minimum effective dosage (MED) which was the concentration threshold of where the repellent began to fail and allowed bites, or (2) a predetermined concentration of each repellent was applied to cloth and the activity was evaluated over several days (or in some cases months) (Katritzky, A. R., et al., Proc. Nat. Acad. Sci. (US), 105, 7359-7364 (2008); Katritzky, A. R., et al., Journal of Med. Entomol., 47: 924-938 (2010)). When conducting assays for repellency, a failure point was also predetermined for those measurements. Since experiments described herein used about 500 female mosquitoes per test, the failure point was set at 1% (equal to 5 bites) received during a test interval. From 3 to 5 volunteers participated in the screening of each set of chemicals.
Minimum Effective Dosage (MED) Test: The MED bioassays on treated cloth were a method of screening to determine the minimum amount of a repellent needed to prevent bites. Experimental compounds were prepared in solution by combining 0.15 g of experimental chemical with 2 mL of acetone in a 7.1 mL screwtop glass vial. This solution was then serially diluted to obtain nine concentrations when applied on to the cloth patch: 1.5, 0.75, 0.375, 0.187, 0.094, 0.047, 0.023, 0.011, and 0.006 mg/cm^2. The standard N,N-diethyl-3-methylbenzamide (DEET) was also tested at the same concentration levels to serve as a control and a comparison for relative repellency. A 50 cm^2 (5 cm×10 cm) patch of muslin cloth was rolled lengthwise and placed into each of the glass vials and scaled with a screwtop so it soaked up the solution. Just prior to the experiment, the pieces of treated cloth were removed from the vials, affixed to card stock tabs (5 cm×3 cm) with staples, and hung with masking tape on a rack to dry and allow acetone to evaporate. Volunteers wore a latex glove over their hands, a nylon stocking over their arm, and then wrapped a plastic Velcro-sealed sleeve over their entire forearm with a 32 cm^2 (4 cm×8 cm) window cut-out to allow mosquitoes to bite through. The nylon stocking acted as a barrier between the dried cloth and the skin, an additional precaution with experimental compounds. Dried cloth patches were stretched across the window in the plastic sleeve and held in place with masking tape. Volunteers placed their sleeve-covered arms into a screened cage for a one minute period with approximately 500 female Ae. aegypti mosquitoes that had been preselected for host-seeking behavior using a draw box (Posey, K. H., and C. E. Schreck, Mosquito News, 41: 566-568 (1981)). […] The MED recorded was the lowest passing concentration level tested for the experimental compound. […] All human volunteers in the study provided informed consent to participate of a protocol approved by the University of Florida Human Use Institutional Review Board (IRB #636-2005).

An. albimanus = experiment: as above; format: in vivo, Anopheles albimanus; details: Table 4, highest concentration 1.500 mg/cm^2
Ae. aegypti [2] = experiment: Complete Protection Time test on treated cloth (duration of protection); format: in vivo, Aedes aegypti; details: Dosage 0.75 mg/cm^2 on cloth
Experimental: Bioassay for mosquito repellent activity: Repellency screening test for experimental chemicals were carried out to identify candidates that might be useful repellents. The repellent efficacy was compared to that of the standard repellent, DEET. Experimental compounds were assessed in one of two ways: (1) a range of concentration was evaluated to determine the minimum effective dosage (MED) which was the concentration threshold of where the repellent began to fail and allowed bites, or (2) a predetermined concentration of each repellent was applied to cloth and the activity was evaluated over several days (or in some cases months) (Katritzky, A. R., et al., Proc. Nat. Acad. Sci. (US), 105, 7359-7364 (2008); Katritzky, A. R., et al., Journal of Med. Entomol., 47: 924-938 (2010)). When conducting assays for repellency, a failure point was also predetermined for those measurements. Since experiments described herein used about 500 female mosquitoes per test, the failure point was set at 1% (equal to 5 bites) received during a test interval. From 3 to 5 volunteers participated in the screening of each set of chemicals. Complete Protection Time Test: Complete protection time (CPT) on treated cloth is a method of screening that is used to determine the repellent duration for experimental chemicals that have not been examined for safe use on humans. The standard repellent DEET was used as a positive control as a benchmark by which to compare the repellents. Experimental compounds were prepared in solution by combining 0.075 g of experimental chemical with 1 mL of acetone in a 7.1-mL screwtop glass vial. The same concentration level of DEET was also prepared in this way to serve as a control and a comparison for relative repellency. A 50 cm^2 (5 cm×10 cm) patch of muslin cloth was rolled lengthwise and placed into each of the glass vials and sealed with a screwtop so it soaked up the solution. Just prior to the experiment, the pieces of treated cloth were removed from the vials, affixed to card stock tabs (5 cm×3 cm) with staples, and hung with masking tape on a rack to dry and allowed the volatile acetone to evaporate. Similar to the MED tests, volunteers wore a latex glove over their hands, a nylon stocking over their arm, and then wrapped a plastic Velcro-sealed sleeve over their entire forearm with a 32 cm^2 (4 cm×8 cm) window cut-out to allow mosquitoes to bite through. Dried cloth patches were stretched across the window in the plastic sleeve and held in place with masking tape. Volunteers placed their sleeve-covered arms into a screened cage for a one minute period with approximately 500 female Ae. aegypti mosquitoes that had been preselected for host-seeking behavior using a draw box. A cloth patch that received a 1% bite through level, equal to 5 mosquitoes that bit out of 500 mosquitoes, was considered a failure at that concentration. If 0-4 bites were received, then the treated cloth was still considered to be repellent at that concentration. The duration was recorded as the number of days an experimental chemical received a passing result, with day 0 being the day the sample was first dried. […] As with the tests conducted to determine CPT, volunteers in the study provided informed consent (IRB protocol #636-2005). The protocol was approved by the University of Florida Human Use Institutional Review Board.

[3] = Table 5, subject M4, highest dose 0.375 mg/cm2 (0.187 for 7)
[4] = Table 5, subject M5, highest dose 0.375 mg/cm2 (0.187 for 7)
[5] = Table 5, subject M8, highest dose 0.375 mg/cm2 (0.187 for 7)
[6] = highest concentration 1.500 mg/cm^2

Row | Compound | mosquito repellent activity against Ae. aegypti (in words) (Ae. aegypti [1]) | Ae. aegypti Minimum Effective Dosage, M4 (Ae. aegypti [1]; [3]) | Ae. aegypti Minimum Effective Dosage, M5 (Ae. aegypti [1]; [4]) | Ae. aegypti Minimum Effective Dosage, M8 (Ae. aegypti [1]; [5]) | Ae. aegypti Minimum Effective Dosage, F1 (Ae. aegypti [1]; [6]) | Ae. aegypti Minimum Effective Dosage, M1 (Ae. aegypti [1]; [6]) | Ae. aegypti Minimum Effective Dosage, M2 (Ae. aegypti [1]; [6]) | other results
1 | COC(=O)c1ccc2c(c1)OC(C)(C)C=C2 [Compound 8] | ineffective | >0.375 mg/cm^2 | >0.375 mg/cm^2 | >0.375 mg/cm^2 |  |  |  | 
2 | COC(=O)c1ccc(Cl)c2c1C=CC(C)(C)O2 [Compound 14, Methyl 8-chloro-2,2-dimethyl-2H-chromene-5-carboxylate] |  |  |  |  | >1.500 mg/cm^2 | >1.500 mg/cm^2 | >1.500 mg/cm^2 | 
3 | CC1(C)C=Cc2cccc(Cl)c2O1 [Compound 15] |  |  |  |  | 0.094 mg/cm^2 | 0.094 mg/cm^2 | 0.187 mg/cm^2 | Ae. aegypti Minimum Effective Dosage, Average (Ae. aegypti [1]): 0.125 mg/cm^2
4 | CC(=O)c1ccc2c(c1O)C=CC(C)(C)O2 [Compound 3] | least repellent |  |  |  |  |  |  | Ae. aegypti Minimum Effective Dosage, M4 (Ae. aegypti [1]; Table 1 preliminary assay, human subject M4, highest concentration 1.500 mg/cm^2): >1.500 mg/cm^2; Ae. aegypti Minimum Effective Dosage, M5 (Ae. aegypti [1]; Table 1 preliminary assay, human subject M5, highest concentration 1.500 mg/cm^2): 0.187 mg/cm^2; Ae. aegypti Minimum Effective Dosage, M8 (Ae. aegypti [1]; Table 1 preliminary assay, human subject M8, highest concentration 1.500 mg/cm^2): >1.500 mg/cm^2; Ae. aegypti Minimum Effective Dosage, M9 (Ae. aegypti [1]; Table 1 preliminary assay, human subject M9, highest concentration 1.500 mg/cm^2): >1.500 mg/cm^2; Ae. aegypti Minimum Effective Dosage, M10 (Ae. aegypti [1]; Table 1 preliminary assay, human subject M10, highest concentration 1.500 mg/cm^2): >1.500 mg/cm^2; An. albimanus Minimum Effective Dosage, M4 (An. albimanus; subject M4): 0.094 mg/cm^2; An. albimanus Minimum Effective Dosage, M5 (An. albimanus; subject M5): >1.500 mg/cm^2; An. albimanus Minimum Effective Dosage, M8 (An. albimanus; subject M8): >1.500 mg/cm^2; An. albimanus Minimum Effective Dosage, M9 (An. albimanus; subject M9): 0.375 mg/cm^2; An. albimanus Minimum Effective Dosage, M10 (An. albimanus; subject M10): >1.500 mg/cm^2
5 | COCCc1ccc2c(c1)C=CC(C)(C)O2 [Compound 19, 6-(2-methoxyethyl)-2,2-dimethyl-2H-chromene] | did not show any improvement of activity | >0.375 mg/cm^2 | >0.375 mg/cm^2 | >0.375 mg/cm^2 |  |  |  | 
6 | COC(=O)Cc1ccc2c(c1)C=CC(C)(C)O2 [Compound 10] |  | >0.375 mg/cm^2 | >0.375 mg/cm^2 | >0.375 mg/cm^2 | 0.375 mg/cm^2 | 0.750 mg/cm^2 | 0.375 mg/cm^2 | Ae. aegypti Minimum Effective Dosage, Average (Ae. aegypti [1]): 0.500 mg/cm^2
7 | CC1(C)C=Cc2cc(Cl)ccc2O1 [Compound 17] |  |  |  |  |  |  |  | Duration of protection, Proportion to DEET (Ae. aegypti [2]): 0.50; Duration of protection against Ae. aegypti, M-3 Days Protection (Ae. aegypti [2]; subject M-3): 1 days

Reference: patent publication US9763444B2, “Compositions and methods for repelling blood-sucking and biting insects, ticks and mites” (The United States of America, as represented by the …, priority 2013, dated 2017)
